Source: patent publication US9302014B2, “Cell-penetrating peptides having a central hydrophobic domain” (Medical Research Council, priority 2011, dated 2016)
Non-standard residues stand in square brackets, D forms with d. No end group written: not given here. Ahx = NCCCCCC(=O)O; βAla = NCCC(=O)O

Columns and labels:
dystrophin = assay: Western blot quantification of dystrophin protein in mdx mouse muscles; format: in vivo; conditions: lead PPMO comparison; 8 week old mdx mice, 12.5 mg/kg IV, 2 weeks
Experimental: The RTPCR representative images (FIG. 34d) illustrate high exon skipping efficiency in all tissues analysed. This is better shown by Real Time PCR (qRT-PCR) results for the quadriceps, diaphragm and heart (FIG. 34c). The delta 23 transcript is normalised against ‘total dystrophin’ for each muscle group (n=3). […] Western blots (FIG. 34e) were performed on the tissues of each mouse and were quantified against a 50% and 10% C57BL10 control.
Four and a half month old to 5½ month old mdx mice were used in these experiments (n=3). The experiments were carried out in the Biomedical Sciences Unit, University of Oxford according to procedures authorised by the UK Home Office. […]
Control and treated muscle samples were homogenised in lysis buffer comprising 75 mM Tris-HCl (pH 6.5) and 10% Sodium Dodecyl Sulphate complemented with 5% 2-mercaptoethanol. […] Protein levels were measured by Bradford assay (Sigma) and quantified using BSA standards. […] Primary antibody was detected by binding of horseradish peroxidise-conjugated anti-mouse IgG with lumigen. Western blots were imaged (LiCOR Biosciences) and analysed using the Odyssey imaging system.
The dystrophin protein level in PPMO treated mdx muscles was quantified by western blot analysis. The density of the dystrophin band was quantified using Licor software and vinculin was used as the loading control. […]

dystrophin exon 23 = assay: Exon skipping in differentiated mouse H2K mdx myotubes (nested RT-PCR, densitometry); format: cell-based; conditions: Example 5, conjugate 0.125 to 2.0 μM, no transfection agent
Experimental: The exon skipping potential of Pip6-PMO conjugates was evaluated in differentiated mouse H2K mdx myotubes in the absence of any transfection agent (FIG. 1) at concentrations ranging from 0.125 μM to 1 μM. […] In the case of Pip6 sequences, the flanking arginine-rich sequences are identical (with the exception of Pip6e, which is identical except for one arginine immediately preceding the core which is displaced into the second position of the core). […] Note that we have previously shown that major changes in in vitro exon skipping activities are correlated instead with the total numbers of arginine residues [Saleh, A. F., et al., Synthesis and splice-redirecting activity of branched, arginine-rich peptide dendrimer conjugates of peptide nucleic acid oligonucleotides. Bioconjug Chem, 2010. 21(10): p. 1902-11.].
H2K mdx myotubes are derived from H2K mdx myoblasts obtained from the EDL muscle of a male H2K mdx f2 mouse. The cells are dystrophin deficient and conditionally immortal due to thermolabile simian virus 40 large tumor antigen (tsA58) expression. The myoblasts proliferate at 33° C. (10% CO2) in rich culture and differentiate into myotubes at 37° C. in media with horse serum.
H2K mdx myotubes were prepared and incubated with peptide-PNA and peptide-PMO conjugates in the absence of any transfection agent by the methods described previously (Wang, Q, Yin, H, et aL (2010) In vitro evaluation of novel antisense oligonucleotides is predictive of in vivo exon skipping activity for Duchenne muscular dystrophy) but with minor variations.
Myotubes were obtained from confluent H2K mdx cells seeded in gelatine coated 24-well plates following 2 days of serum deprivation (DMEM with 5% horse serum). The conjugates were incubated with myotubes for 4 h in 0.5 mL OptiMEM and then replaced by 1 mL of DMEM/5% horse serum media for further incubation. After 20 h myotubes were washed twice with PBS and total RNA was extracted with 0.5 mL of TRI Reagent (Sigma, UK). RNA preparations were treated with RNAse free DNAse (2U) and Proteinase K ([…]) prior to RT-PCR analysis. RT-PCR was carried out in 25 μL with 1 μg RNA template using SuperScript III One-Step RTPCR System with Platinum Taq DNA polymerase (Invitrogen) primed by forward primer 5′CAG AAT TCT GCC AAT TGC TGAG3′ [SEQ ID NO:312] and reverse primer 5′TTC TTC AGC TTG TGT CAT CC3′ [SEQ ID NO:313]. The initial cDNA synthesis was performed at 55° C. for 30 min followed by 30 cycles of 95° C. for 30 sec, 55° C. for 1 min and 68° C. for 80 sec. RT PCR product ([…]) was then used as the template for secondary PCR performed in 25 μL with 0.5 U Super TAQ polymerase (HT Biotechnologies) and primed by forward primer 5′CCCAGTCTACCACCCTATCAG AGC3′ [SEQ ID NO:314] and reverse primer 5′CCT GCC TTT AAG GCT TCC TT3′ [SEQ ID NO:315]. The cycling conditions were 95° C. for 1 min, 57° C. for 1 min and 72° C. for 80 sec for 25 cycles. Products were examined by 2% agarose gel and after scanning using Gene Tools Analysis Software (SynGene) the relative amount of exon 23 skipping was expressed as a percentage at a given concentration of conjugates averaged over duplicates of three experiments.
H2K mdx myotubes were prepared and incubated with peptide-PMO conjugates in the absence of any transfection agent at concentrations of 0.125, 0.25, 0.5 and 1.0 μM by the method described previously [Yin, H., et al., Pip5 transduction peptides direct high efficiency oligonucleotide-mediated dystrophin exon skipping in heart and phenotypic correction in mdx mice. Mol Ther, 2011. 19(7): p. 1295-303.]. The products of nested RT-PCR from total isolated RNA were examined by electrophoresis on a 2% agarose gel. Quantification of Δ23 transcript levels was calculated using densitometry. […]

With “Pip9d2: Pip9 series peptide (SEQ ID Nos 320-328) conjugated to PMODMD (R[Ahx]RR[βAla]RFQILY[βAla]R[Ahx]R[βAla]; also: conjugated to PMO (PMODMD))” the “dystrophin protein level by western blot (vinculin loading control)” value (dystrophin) was “negligible dystrophin production” and the “exon skipping activity (Δ23 skipping) in mdx muscle cells” value (dystrophin exon 23) was “high exon skipping activity”.
